Structures can show the parent of a compound that is named as a salt.
Target: T1, human V1a receptor (Homo sapiens, UniProt P37288)
T1 construct: expressed in transfected cells; host or cells: HEK293 cells, transiently transfected; membranes
Assay: human V1a receptor binding studies (3H-Vasopressin SPA, membranes of transfected HEK293 cells)
Conditions: 3H-Vasopressin displacement, HEK293 cell membranes, SPA beads, 1 h at room temperature, Ki by Cheng-Prussoff from IC50, read-out: pKi (hV1a) (converted)
Description: The human V1a receptor was cloned by RT-PCR from total human liver RNA. The coding sequence was subcloned in an expression vector after sequencing to confirm the identity of the amplified sequence. […] Cell membranes were prepared from HEK293-cells transiently transfected with the expression vector and grown in 20 liter fermenters with the following protocol.
50 g of cells are resuspended in 30 ml freshly prepared ice cold Lysis buffer (50 mM HEPES, 1 mM EDTA, 10 mM magnesium dichloride adjusted to pH=7.4+ complete cocktail of protease inhibitor (Roche Diagnostics)). Homogenized with Polytron for 1 min and sonicated on ice for 2×2 minutes at 80% intensity (Vibracell sonicator). The preparation is centrifuged 20 min at 500 g at 4° C., the pellet is discarded and the supernatant centrifuged 1 hour at 43,000 g at 4° C. (19,000 rpm). The pellet is resuspended in 12.5 ml Lysis buffer+12.5 ml sucrose 20% and homogenized using a Polytron for 1-2 min. The protein concentration is determined by the Bradford method and aliquots are stored at −80° C. until use. For binding studies 60 mg Yttrium silicate SPA beads (Amersham®) are mixed with an aliquot of membrane in binding buffer (50 mM Tris, 120 mM sodium chloride, 5 mM potassium chloride, 2 mM calcium dichloride, 10 mM magnesium dichloride) for 15 minutes with mixing. 50 μl of bead/membrane mixture is then added to each well of a 96 well plate, followed by 50 μl of 4 nM 3H-Vasopressin (American Radiolabeled Chemicals). For total binding measurement 100 μl of binding buffer are added to the respective wells, for non-specific binding 100 μl of 8.4 mM cold vasopressin and for compound testing 100 μl of a serial dilution of each compound in 2% dimethyl sulfoxide. The plate is incubated 1 h at room temperature, centrifuged 1 min at 1000 g and counted on a Packard Top-Count. Non-specific binding counts are subtracted from each well and data is normalized to the maximum specific binding set at 100%. To calculate an IC50 the curve is fitted using a non-linear regression model (XLfit) and the Ki is calculated using the Cheng-Prussoff equation.

T1 sequence (P37288 whole entry): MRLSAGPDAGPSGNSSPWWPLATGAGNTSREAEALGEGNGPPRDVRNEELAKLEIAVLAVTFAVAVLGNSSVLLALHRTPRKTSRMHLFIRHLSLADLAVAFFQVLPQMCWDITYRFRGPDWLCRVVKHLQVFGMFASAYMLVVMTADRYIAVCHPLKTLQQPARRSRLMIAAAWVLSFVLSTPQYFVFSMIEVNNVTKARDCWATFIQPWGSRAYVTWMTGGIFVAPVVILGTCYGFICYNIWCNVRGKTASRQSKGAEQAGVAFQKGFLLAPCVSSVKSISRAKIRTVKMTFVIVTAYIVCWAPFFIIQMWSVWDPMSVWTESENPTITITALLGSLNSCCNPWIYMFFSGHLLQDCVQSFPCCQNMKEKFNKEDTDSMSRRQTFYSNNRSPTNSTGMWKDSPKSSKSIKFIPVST

SMILES | Ki [nM]
N#Cc1cccc(C2=CCC(c3nnc4n3-c3ccc(Cl)cc3CNC4)CC2)c1 (racemic) [Example 21, (RS)-3-[4-(8-Chloro-5,6-dihydro-4H-2,3,5,10b-tetraaza-benzo[e]azulen-1-yl)-cyclohex-1-enyl]benzonitrile hydrochloride] | 427
CC(C)(C)OC(=O)N1Cc2cc(Cl)ccc2-n2c(nnc2C2CC=C(c3cccc(OC(F)(F)F)c3)CC2)C1 (racemic) [Example 8, (RS)-8-Chloro-1-[4-(3-trifluoromethoxy-phenyl)-cyclohex-3-enyl]-4H,6H-2,3,5,10b-tetraaza-benzo[e]azulene-5-carboxylic acid tert-butyl ester] | 72.4
CC(C)(C)OC(=O)N1Cc2cc(Cl)ccc2-n2c(nnc2C2CC=C(c3cccc4ccccc34)CC2)C1 (racemic) [Example 14, (RS)-8-Chloro-1-(4-naphthalen-1-yl-cyclohex-3-enyl)-4H,6H-2,3,5,10b-tetraaza-benzo[e]azulene-5-carboxylic acid tert-butyl ester] | 11
COc1ccc(F)cc1C1=CCC(c2nnc3n2-c2ccc(Cl)cc2CN(C)C3)CC1 (racemic) [Example 19, (RS)-8-Chloro-1-[4-(5-fluoro-2-methoxy-phenyl)-cyclohex-3-enyl]-5-methyl-5,6-dihydro-4H-2,3,5,10b-tetraaza-benzo[e]azulene] | 10
CN1Cc2cc(Cl)ccc2-n2c(nnc2C2CC=C(c3cccc4ccccc34)CC2)C1 (racemic) [Example 16, (RS)-8-Chloro-5-methyl-1-(4-naphthalen-1-yl-cyclohex-3-enyl)-5,6-dihydro-4H-2,3,5,10b-tetraaza-benzo[e]azulene] | 19.1
CN1Cc2cc(Cl)ccc2-n2c(nnc2C2CC=C(c3cc(F)ccn3)CC2)C1 (racemic) [Example 27, (RS)-8-Chloro-1-[4-(4-fluoro-pyridin-2-yl)-cyclohex-3-enyl]-5-methyl-5,6-dihydro-4H-2,3,5,10b-tetraaza-benzo[e]azulene] | 10.5
Fc1ccnc(C2=CCC(c3nnc4n3-c3ccc(Cl)cc3CNC4)CC2)c1 (racemic) [Example 26, (RS)-8-Chloro-1-[4-(4-fluoro-pyridin-2-yl)-cyclohex-3-enyl]-5,6-dihydro-4H-2,3,5,10b-tetraaza-benzo[e]azulene] | 110
CC(C)(C)OC(=O)N1Cc2cc(Cl)ccc2-n2c(nnc2C2CC=C(c3ccc(F)cc3)CC2)C1 (racemic) [Example 5, (RS)-8-Chloro-1-[4-(4-fluoro-phenyl)-cyclohex-3-enyl]-4H,6H-2,3,5,10b-tetraaza-benzo[e]azulene-5-carboxylic acid tert-butyl ester] | 8.32
CC(C)(C)OC(=O)N1Cc2cc(Cl)ccc2-n2c(nnc2C2CC=C(c3ncccc3F)CC2)C1 (single isomer, unassigned; (+)) [Example 29, (+)-8-Chloro-1-[-4-(3-fluoro-pyridin-2-yl)-cyclohex-3-enyl]-4H,6H-2,3,5,10b-tetraaza-benzo[e]azulene-5-carboxylic acid tert-butyl ester] | 0.794
Cc1nc(C2=CCC(c3nnc4n3-c3ccc(Cl)cc3CNC4)CC2)cs1 (racemic) [Example 35, (RS)-8-Chloro-1-[4-(2-methyl-thiazol-4-yl)-cyclohex-3-enyl]-5,6-dihydro-4H-2,3,5,10b-tetraaza-benzo[e]azulene] | 170
CN1Cc2cc(Cl)ccc2-n2c(nnc2C2CC=C(c3ncccc3F)CC2)C1 (single isomer, unassigned; (-)) [Example 31, (−)-8-Chloro-1-[-4-(3-fluoro-pyridin-2-yl)-cyclohex-3-enyl]-5-methyl-5,6-dihydro-4H-2,3,5,10b-tetraaza-benzo[e]azulene] | 8.13
CN1Cc2cc(Cl)ccc2-n2c(nnc2C2CC=C(c3cccc(C#N)c3)CC2)C1 (racemic) [Example 22, (RS)-3-[4-(8-Chloro-5-methyl-5,6-dihydro-4H-2,3,5,10b-tetraaza-benzo[e]azulen-1-yl)-cyclohex-1-enyl]benzonitrile] | 56.2
CC(C)(C)OC(=O)N1Cc2cc(Cl)ccc2-n2c(nnc2C2CC=C(c3cc(F)ccn3)CC2)C1 (racemic) [Example 25, (RS)-8-Chloro-1-[4-(4-fluoro-pyridin-2-yl)-cyclohex-3-enyl]-4H,6H-2,3,5,10b-tetraaza-benzo[e]azulene-5-carboxylic acid tert-butyl ester] | 4.68
Clc1ccc2c(c1)CNCc1nnc(C3CC=C(c4ccccc4)CC3)n1-2 (racemic) [Example 1, (RS)-8-Chloro-1-(4-phenyl-cyclohex-3-enyl)-5,6-dihydro-4H-2,3,5,10b-tetraaza-benzo[e]azulene hydrochloride] | 10
